The source made the active and inactive calls.
Columns and labels:
[1] = molecular target: T1, Cytochrome P450 1A2 (Homo sapiens, UniProt P05177);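 note: PubChem cytochrome P450 panel assay, CYP1A2 panel member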
T1 sequence (P05177 whole entry): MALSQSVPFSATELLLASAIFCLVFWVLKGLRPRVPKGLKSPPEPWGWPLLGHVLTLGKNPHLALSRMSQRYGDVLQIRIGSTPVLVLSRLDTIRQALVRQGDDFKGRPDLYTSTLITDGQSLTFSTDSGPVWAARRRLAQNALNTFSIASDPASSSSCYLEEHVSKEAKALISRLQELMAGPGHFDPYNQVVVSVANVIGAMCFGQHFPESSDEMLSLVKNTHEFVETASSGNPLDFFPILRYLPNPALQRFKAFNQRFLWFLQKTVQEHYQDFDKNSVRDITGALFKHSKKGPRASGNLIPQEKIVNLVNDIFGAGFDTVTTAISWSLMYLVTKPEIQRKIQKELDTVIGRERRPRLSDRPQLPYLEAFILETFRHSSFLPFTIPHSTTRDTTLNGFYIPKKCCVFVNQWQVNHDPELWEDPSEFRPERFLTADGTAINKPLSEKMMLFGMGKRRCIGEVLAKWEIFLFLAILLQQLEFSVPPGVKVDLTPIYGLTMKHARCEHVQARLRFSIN

[2] = molecular target: T2, Heat shock factor protein 1 (Mus musculus, UniProt P38532); assay: inhibition of MG132-induced HSE-luciferase signal, confirmation, cell-based, NIH3T3, luminescence, dose retest (AID 2382); assay type: functional;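 note: NIH3T3 fibroblasts with HSF1-driven luciferase reporter stressed by proteasome inhibitor MG132; luminescence from HSF1-driven luciferase expression after 8 hours of MG132 stress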
T2 sequence (P38532 whole entry): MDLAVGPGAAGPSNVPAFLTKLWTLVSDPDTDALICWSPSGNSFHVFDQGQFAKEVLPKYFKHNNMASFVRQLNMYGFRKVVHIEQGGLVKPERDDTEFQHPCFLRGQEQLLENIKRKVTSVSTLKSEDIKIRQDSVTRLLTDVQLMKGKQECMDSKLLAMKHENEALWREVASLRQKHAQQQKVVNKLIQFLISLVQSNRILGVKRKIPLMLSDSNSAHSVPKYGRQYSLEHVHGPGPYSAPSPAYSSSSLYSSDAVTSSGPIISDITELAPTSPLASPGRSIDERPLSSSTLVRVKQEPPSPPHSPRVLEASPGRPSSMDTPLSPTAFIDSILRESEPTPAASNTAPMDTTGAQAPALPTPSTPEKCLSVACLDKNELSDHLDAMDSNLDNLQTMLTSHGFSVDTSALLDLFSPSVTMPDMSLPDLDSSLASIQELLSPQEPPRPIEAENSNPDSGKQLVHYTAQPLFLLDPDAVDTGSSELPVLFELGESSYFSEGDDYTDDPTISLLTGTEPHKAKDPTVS

[3] = molecular target: Cytochrome P450 2C9 (Homo sapiens, UniProt P11712)
[4] = molecular target: Cytochrome P450 2C19 (Homo sapiens, UniProt P33261); assay: Cytochrome panel assay with activity outcomes. Panel member name: p450-cyp2c19 Compounds with AC50 equal or less than 10 uM are considered active; assay type: functional
[5] = molecular target: Cytochrome P450 3A4 (Homo sapiens, UniProt P08684);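 note: CYP3A4 tested as one member of a cytochrome P450 panel screen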
[6] = molecular target: Cytochrome P450 2D6 (Homo sapiens, UniProt P10635);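 note: CYP2D6 member of a cytochrome P450 panel assay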
[7] = test system: INS1; assay: beta cell apoptosis inhibitors, cytokine rescue, dose response, luminescence, retest (AID 449756); assay type: functional, cell-based; settings: Rattus norvegicus;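 note: cell death triggered by IL-1 beta plus TNF-alpha plus IFN-gamma mixture; protective hits raise ATP signal compared with cytokine alone wells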
[8] = molecular target: T3, Replicative DNA helicase DnaB (Mycobacterium tuberculosis, UniProt P9WMR3); assay: DnaB intein splicing inhibitors, dose response, biochemical, cell-free fluorescence (AID 449749); assay type: functional
T3 sequence (P9WMR3 whole entry): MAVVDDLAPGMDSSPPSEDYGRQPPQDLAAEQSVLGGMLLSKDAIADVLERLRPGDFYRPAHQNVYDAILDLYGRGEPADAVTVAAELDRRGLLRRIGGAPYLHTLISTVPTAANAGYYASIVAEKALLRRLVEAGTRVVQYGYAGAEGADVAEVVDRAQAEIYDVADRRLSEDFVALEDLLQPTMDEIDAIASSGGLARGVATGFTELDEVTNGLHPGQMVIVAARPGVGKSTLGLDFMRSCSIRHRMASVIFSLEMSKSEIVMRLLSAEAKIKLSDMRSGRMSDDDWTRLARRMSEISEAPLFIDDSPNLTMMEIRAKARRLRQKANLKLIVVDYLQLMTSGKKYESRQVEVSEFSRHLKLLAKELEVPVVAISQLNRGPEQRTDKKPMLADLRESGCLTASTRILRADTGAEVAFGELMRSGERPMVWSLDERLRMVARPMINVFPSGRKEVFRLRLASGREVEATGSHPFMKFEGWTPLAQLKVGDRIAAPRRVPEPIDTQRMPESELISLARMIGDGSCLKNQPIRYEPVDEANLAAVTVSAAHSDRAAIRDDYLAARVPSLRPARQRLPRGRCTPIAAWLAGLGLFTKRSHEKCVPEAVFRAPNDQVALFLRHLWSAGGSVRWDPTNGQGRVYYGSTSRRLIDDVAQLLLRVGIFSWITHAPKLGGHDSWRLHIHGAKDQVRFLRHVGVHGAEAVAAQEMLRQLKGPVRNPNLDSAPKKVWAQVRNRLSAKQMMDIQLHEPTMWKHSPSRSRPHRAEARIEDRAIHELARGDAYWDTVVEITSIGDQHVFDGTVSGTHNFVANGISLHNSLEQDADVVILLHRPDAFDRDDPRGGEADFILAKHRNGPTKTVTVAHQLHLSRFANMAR

[9] = molecular target: T4, Protein RecA (Mycobacterium tuberculosis, UniProt P9WHJ3); assay: Fluorescence Cell-Free Homogeneous Dose Retest to Identify Inhibitors of RecA-Intein Splicing Activity. [Related pubchem assays (depositor defined):AID2097, AID2223, AID489010, AID492950]; assay type: functional
T4 sequence (P9WHJ3 whole entry): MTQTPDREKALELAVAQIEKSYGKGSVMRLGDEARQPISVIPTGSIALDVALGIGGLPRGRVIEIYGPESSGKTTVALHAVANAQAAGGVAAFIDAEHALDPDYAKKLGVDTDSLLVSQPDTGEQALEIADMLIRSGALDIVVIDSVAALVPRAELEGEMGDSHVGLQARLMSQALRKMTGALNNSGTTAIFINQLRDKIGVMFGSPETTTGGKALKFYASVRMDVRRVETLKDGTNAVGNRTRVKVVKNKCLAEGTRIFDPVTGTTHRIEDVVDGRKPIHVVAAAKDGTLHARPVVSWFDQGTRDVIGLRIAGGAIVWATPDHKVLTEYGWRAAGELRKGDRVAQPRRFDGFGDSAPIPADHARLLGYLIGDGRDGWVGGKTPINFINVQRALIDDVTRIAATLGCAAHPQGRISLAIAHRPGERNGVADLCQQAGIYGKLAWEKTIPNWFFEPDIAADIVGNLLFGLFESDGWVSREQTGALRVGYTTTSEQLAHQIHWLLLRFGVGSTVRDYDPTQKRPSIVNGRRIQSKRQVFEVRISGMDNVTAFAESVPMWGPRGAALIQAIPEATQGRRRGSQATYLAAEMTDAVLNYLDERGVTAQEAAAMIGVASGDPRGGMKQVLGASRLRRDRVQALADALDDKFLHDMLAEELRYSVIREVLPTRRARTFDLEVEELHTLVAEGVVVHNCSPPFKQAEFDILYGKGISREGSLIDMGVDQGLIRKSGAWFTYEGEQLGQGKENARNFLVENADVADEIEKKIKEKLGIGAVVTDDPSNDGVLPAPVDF

[10] = molecular target: Large T antigen (Simian virus 40, UniProt P03070); assay type: functional, Betapolyomavirus macacae;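 note: Confirmatory-stage PubChem screen for compounds that inhibit SV40 T antigen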
Chain of Large T antigen (P03070 whole entry): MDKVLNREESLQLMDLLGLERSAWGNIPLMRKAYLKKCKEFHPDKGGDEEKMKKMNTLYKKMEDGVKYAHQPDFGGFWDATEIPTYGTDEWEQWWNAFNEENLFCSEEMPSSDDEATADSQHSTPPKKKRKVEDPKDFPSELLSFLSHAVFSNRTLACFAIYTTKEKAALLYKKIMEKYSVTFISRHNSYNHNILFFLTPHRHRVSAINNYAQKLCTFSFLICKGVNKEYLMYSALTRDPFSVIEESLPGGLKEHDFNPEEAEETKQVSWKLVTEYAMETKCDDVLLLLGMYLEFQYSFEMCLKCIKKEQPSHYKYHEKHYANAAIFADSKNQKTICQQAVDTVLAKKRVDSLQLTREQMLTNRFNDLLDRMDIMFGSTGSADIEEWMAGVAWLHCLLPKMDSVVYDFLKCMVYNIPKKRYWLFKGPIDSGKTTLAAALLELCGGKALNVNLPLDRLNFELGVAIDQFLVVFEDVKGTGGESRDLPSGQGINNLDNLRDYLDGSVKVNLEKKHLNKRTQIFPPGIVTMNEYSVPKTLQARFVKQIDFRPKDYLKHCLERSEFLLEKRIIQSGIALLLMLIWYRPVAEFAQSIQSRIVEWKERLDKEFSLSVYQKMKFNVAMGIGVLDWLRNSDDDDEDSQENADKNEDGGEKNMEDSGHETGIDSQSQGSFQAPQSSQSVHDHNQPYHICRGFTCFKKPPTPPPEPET

Chain of Cytochrome P450 2C19 (P33261 whole entry): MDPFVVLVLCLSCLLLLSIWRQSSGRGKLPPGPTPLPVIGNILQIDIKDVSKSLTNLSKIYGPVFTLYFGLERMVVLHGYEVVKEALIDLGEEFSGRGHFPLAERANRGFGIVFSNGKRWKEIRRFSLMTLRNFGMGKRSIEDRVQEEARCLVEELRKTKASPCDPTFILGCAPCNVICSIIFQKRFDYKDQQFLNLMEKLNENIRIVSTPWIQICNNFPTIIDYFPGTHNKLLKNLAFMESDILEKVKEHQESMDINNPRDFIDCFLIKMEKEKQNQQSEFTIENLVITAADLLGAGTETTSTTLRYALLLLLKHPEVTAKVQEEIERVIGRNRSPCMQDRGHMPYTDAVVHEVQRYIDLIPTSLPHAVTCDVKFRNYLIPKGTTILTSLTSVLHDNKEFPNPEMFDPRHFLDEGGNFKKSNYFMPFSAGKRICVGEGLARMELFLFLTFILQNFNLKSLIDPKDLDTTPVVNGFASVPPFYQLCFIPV
Chain of Cytochrome P450 3A4 (P08684 whole entry): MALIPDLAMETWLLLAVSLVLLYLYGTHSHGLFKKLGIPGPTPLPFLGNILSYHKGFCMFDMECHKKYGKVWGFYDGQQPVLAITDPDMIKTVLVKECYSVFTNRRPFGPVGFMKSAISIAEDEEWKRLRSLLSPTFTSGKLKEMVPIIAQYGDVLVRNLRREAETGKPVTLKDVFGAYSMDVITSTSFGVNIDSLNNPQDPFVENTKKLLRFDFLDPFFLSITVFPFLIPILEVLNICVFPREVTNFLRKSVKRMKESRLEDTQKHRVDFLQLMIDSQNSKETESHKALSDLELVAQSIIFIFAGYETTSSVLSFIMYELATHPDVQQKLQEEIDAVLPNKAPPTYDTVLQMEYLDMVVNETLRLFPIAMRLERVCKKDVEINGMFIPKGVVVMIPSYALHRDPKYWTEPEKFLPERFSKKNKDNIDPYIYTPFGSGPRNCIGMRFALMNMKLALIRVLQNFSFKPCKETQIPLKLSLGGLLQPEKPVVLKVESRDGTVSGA
Chain of Cytochrome P450 2C9 (P11712 whole entry): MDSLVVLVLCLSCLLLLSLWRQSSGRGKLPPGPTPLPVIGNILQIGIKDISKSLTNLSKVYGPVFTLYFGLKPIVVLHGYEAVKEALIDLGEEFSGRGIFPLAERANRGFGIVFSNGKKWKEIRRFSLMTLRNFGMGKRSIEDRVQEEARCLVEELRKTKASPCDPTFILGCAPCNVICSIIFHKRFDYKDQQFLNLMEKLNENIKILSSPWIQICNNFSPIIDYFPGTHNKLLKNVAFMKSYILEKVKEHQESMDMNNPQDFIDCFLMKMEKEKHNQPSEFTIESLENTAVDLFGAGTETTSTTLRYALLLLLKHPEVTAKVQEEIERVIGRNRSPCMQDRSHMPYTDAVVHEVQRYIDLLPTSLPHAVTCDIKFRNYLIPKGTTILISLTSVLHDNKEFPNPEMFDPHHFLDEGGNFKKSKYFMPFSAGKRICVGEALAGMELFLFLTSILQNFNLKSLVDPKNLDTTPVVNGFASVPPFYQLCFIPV
Chain of Cytochrome P450 2D6 (P10635 whole entry): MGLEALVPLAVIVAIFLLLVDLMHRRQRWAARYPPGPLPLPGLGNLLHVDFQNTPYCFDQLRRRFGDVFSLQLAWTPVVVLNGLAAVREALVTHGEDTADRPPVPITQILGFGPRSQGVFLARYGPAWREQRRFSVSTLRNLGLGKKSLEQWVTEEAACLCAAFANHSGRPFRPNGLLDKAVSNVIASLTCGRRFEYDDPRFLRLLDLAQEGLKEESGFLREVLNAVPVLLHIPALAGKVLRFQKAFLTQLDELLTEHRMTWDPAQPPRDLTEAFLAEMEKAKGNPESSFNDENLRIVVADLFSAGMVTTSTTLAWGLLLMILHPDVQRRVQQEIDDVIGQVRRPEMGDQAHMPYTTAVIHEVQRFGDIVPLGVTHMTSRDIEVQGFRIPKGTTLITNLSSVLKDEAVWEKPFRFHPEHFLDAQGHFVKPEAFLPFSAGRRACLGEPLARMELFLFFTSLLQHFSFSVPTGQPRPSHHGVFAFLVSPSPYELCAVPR

O=C(O)/C=C\C(=O)Nc1ccc2c(c1)C(=O)c1cc(F)ccc1-2
AC50 [1]: 0.794 µM (inconclusive)

COc1ccc(S(=O)(=O)Nc2ccccc2C(=O)N2CCOCC2)cc1Cl
EC50 [2]: 46 µM (active)

CCNC(=O)C1CC(=O)OC12CCCCC2 (centres undefined)
AC50 [3]: 25.1 µM (inconclusive)

COC(=O)CN1C(=O)Nc2ccc(C)cc2C1c1ccccc1 (centres undefined)
EC50 [2]: > 195 µM (not active)

O=C(c1ccccc1)N1CCSC1=S
AC50 ([4]; read-out: AC50): 25.1 µM (inconclusive)

Cc1nc2ccccn2c1C(=O)CSc1ccccc1Cl
AC50 [5]: 12.6 µM (inconclusive)
AC50 [6]: 25.1 µM (inconclusive)

CN1CCN(c2ncc3ncc(=O)n(CCc4ccccc4)c3n2)CC1
AC50 [5]: 15.8 µM (inconclusive)
AC50 [6]: 20 µM (inconclusive)

CCOc1ccc(NC(=O)c2cccnc2C(=O)O)cc1
EC50 [2]: > 195 µM (not active)

COc1ccc(NC(=O)Cn2cccc2)c(OC)c1
AC50 [3]: 7.08 µM (inconclusive)

COc1ccc(C2=NCCn3nc4cc([N+](=O)[O-])ccc4c32)cc1
EC50 [2]: > 195 µM (not active)

Cc1ccnc(NC(=O)c2cccc(NC(=O)COc3ccccc3)c2)c1
AC50 [3]: 4.47 µM (inconclusive)
AC50 [6]: 17.8 µM (inconclusive)

COC(=O)[C@@]1(Cc2ccc(OC)cc2)[C@H]2c3cc(C(=O)N(C)C)n(CCc4ccccn4)c3C[C@H]2CN1C(=O)c1ccccc1
AC50 ([4]; read-out: AC50): 39.8 µM (inconclusive)

NC(=O)C1CCN(C(=O)OCc2ccccc2)CC1
AC50 ([4]; read-out: AC50): 11.2 µM (inconclusive)

COc1ccccc1CNC(=O)Cn1nnc(-c2ccncc2)n1
AC50 [5]: 3.16 µM (inconclusive)
AC50 [6]: 2.24 µM (inconclusive)

Cc1cc(=O)oc(C)c1C(=O)NCCCN1CCN(c2ccc(F)cc2)CC1
AC50 [3]: 15.8 µM (inconclusive)
AC50 [6]: 15.8 µM (inconclusive)

O=C(COc1cccnc1[N+](=O)[O-])Nc1cc(S(=O)(=O)N2CCCCC2)ccc1Cl
EC50 [2]: > 195 µM (not active)

COc1ccccc1CN1CC2(CCN(C(=O)c3cnccn3)CC2)C1
AC50 [5]: 20 µM (inconclusive)

Cc1ccc(C(=O)COC(=O)c2ccccc2N2C(=O)C3C4CCC(C4)C3C2=O)cc1C (centres undefined)
AC50 [3]: 2 µM (inconclusive)

O=C(CSc1nnc(CCc2ccccc2)n1-c1ccc(Cl)cc1)c1ccccc1
EC50 [2]: > 195 µM (not active)

Cc1cccc(C(=O)NNC(=O)C2CCCO2)c1 (centres undefined)
AC50 ([4]; read-out: AC50): 5.01 µM (inconclusive)

COc1ccc(OC)c(NC(S)=NCc2cccnc2)c1
EC50 [2]: > 195 µM (not active)

Cn1c(=O)c(-c2cccs2)nc2cnc(N3CCNCC3)nc21
AC50 [5]: 25.1 µM (inconclusive)
AC50 [3]: 39.8 µM (inconclusive)

CC(C)C(NC(=O)C1CCCCC1)C(=O)NCc1ccccn1 (centres undefined)
AC50 [5]: 15.8 µM (inconclusive)

COCCCN(Cc1ccco1)C(=O)CSc1nc2ccc[nH]c-2n1
EC50 [2]: > 195 µM (not active)

c1ccc2c(CNC3CCCCC3)c[nH]c2c1
AC50 [7]: 8.45 µM (active)

COc1cccc(Nc2ncc3nc(C)c(=O)n(-c4ccccc4)c3n2)c1
AC50 [3]: 31.6 µM (inconclusive)
AC50 ([4]; read-out: AC50): 25.1 µM (inconclusive)

O=C1O[C@@H]([C@H](O)[C@H](O)[C@H](O)CO)[C@@H](O)[C@@H]1O
AC50 [4]: inconclusive

COC(=O)[C@H](Cc1ccccc1)N(Cc1ccccc1)S(=O)(=O)N(Cc1ccccc1)[C@@H](Cc1ccccc1)C(=O)OC
AC50 [7]: 4.51 µM (active)

CC[C@@H]1C/C=C\Cc2ccccc2[C@H](C(=O)C[C@@H](O)CC(C)=O)OC1=O
AC50 [7]: > 260 µM (inactive)

Cc1ccc(C(=O)NCCNC(=O)CN2CCOCC2)cc1
AC50 [5]: 28.2 µM (inconclusive)
AC50 ([4]; read-out: AC50): 0.708 µM (inconclusive)

CCCOc1ccc(N2CC(C(=O)NC(C)C)CC2=O)cc1 (centres undefined)
EC50 [2]: > 195 µM (not active)

Cc1ccc(NC(=O)CSCc2cc(=O)n3cc(C)sc3n2)c(C)c1
EC50 [2]: > 195 µM (not active)

O=C(Oc1ccccc1[N+](=O)[O-])c1cccnc1
AC50 [3]: 15.8 µM (inconclusive)

Cc1ccc(NC(=O)C2CCCN2S(=O)(=O)c2ccc3c(c2)n(C)c(=O)c(=O)n3C)cc1C (centres undefined)
EC50 [2]: > 195 µM (not active)

CCOC(=O)c1cc2c(=O)n3cccc(C)c3nc2n(CCOC)/c1=N\C(C)=O
EC50 [2]: > 195 µM (not active)

CC1(C)CC(=O)C(/C=N/CCN2CCN(C(=S)Nc3ccc(F)cc3)CC2)=C(O)C1
AC50 [5]: 25.1 µM (inconclusive)
AC50 [3]: 25.1 µM (inconclusive)

CCC(=O)N(C)/C=C1\Sc2ccccc2C1=O
AC50 [5]: 14.1 µM (inconclusive)
AC50 [3]: 12.6 µM (inconclusive)

COc1ccc(/C=N\NC(=O)C2C(=O)NCC2c2ccccc2)cc1O (centres undefined)
AC50 [5]: 39.8 µM (inconclusive)
AC50 [3]: 35.5 µM (inconclusive)
AC50 [6]: 7.94 µM (inconclusive)

Cc1cnc(CNc2nc(-c3ccccc3C)nc3ccccc23)cn1
AC50 [5]: 10 µM (inconclusive)
AC50 [6]: 39.8 µM (inconclusive)

Fc1ccc(Oc2nc(-c3ccccn3)nc3ccccc23)cc1
AC50 [7]: 4.84 µM (active)

c1ccc(-c2n[nH]c(-c3ccccc3)c2-c2nc3ccccc3[nH]2)cc1
AC50 ([4]; read-out: AC50): 22.4 µM (inconclusive)

O=Cc1sc(=O)n(Cc2cccc(C(=O)O)c2)c1Cl
AC50 [8]: 16.5 µM (active)
EC50 [9]: 9.42 µM (active)
IC50 [10]: 18.6 µM (active)

C/C(=C/C(=O)NCc1ccccc1)C(=O)O
AC50 [3]: 0.0398 µM (inconclusive)
AC50 [4]: inconclusive
